According to patent US8168667B2 (Galapagos NV, priority 2006, dated 2012):
Like-named read-outs stand apart in the source and are kept apart here.

Target: T1, human androgen receptor (hAR) (Homo sapiens, UniProt P10275)
T1 sequence (P10275 1-920): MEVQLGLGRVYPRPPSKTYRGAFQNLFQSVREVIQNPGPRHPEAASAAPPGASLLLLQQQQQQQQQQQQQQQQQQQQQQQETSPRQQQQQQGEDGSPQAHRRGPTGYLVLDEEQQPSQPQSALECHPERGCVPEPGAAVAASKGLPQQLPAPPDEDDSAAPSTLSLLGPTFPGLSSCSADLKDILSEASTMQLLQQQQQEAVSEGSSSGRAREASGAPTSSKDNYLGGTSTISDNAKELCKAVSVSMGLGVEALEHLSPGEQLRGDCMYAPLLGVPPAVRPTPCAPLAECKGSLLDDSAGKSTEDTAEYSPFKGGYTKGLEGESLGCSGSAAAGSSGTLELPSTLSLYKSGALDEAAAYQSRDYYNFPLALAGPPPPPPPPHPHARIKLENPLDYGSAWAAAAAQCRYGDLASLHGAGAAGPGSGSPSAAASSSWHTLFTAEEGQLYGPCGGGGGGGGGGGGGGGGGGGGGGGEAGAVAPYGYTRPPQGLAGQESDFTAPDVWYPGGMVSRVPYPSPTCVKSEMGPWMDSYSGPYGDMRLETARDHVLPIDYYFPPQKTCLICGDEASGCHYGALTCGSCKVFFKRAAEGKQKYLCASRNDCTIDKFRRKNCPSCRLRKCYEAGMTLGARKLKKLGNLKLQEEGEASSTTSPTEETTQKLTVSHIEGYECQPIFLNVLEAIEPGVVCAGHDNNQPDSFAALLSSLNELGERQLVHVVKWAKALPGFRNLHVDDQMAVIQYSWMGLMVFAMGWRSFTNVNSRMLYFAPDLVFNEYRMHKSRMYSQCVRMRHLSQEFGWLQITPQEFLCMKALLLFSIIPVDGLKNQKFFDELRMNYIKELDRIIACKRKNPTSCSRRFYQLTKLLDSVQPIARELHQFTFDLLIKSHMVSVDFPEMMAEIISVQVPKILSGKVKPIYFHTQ
Assay: Functional response test: hAR transactivation (luciferase reporter) in HALP2 cells
Format: cell-based
Settings: for EC50: agonism, HALP2 cells (HeLa, hAR + ARE-luciferase), 20 hours at 37° C.
Description: This test constitutes a method of identifying pure or partial agonists which mimic the effects of natural hormones, such as DHT (dihydrotestosterone) in the present case or, on the other hand, antagonists which inhibit them.
For this transactivation test, plasmids encoding a reporter gene and the human androgen receptor (hAR) are introduced together by transfection into the HeLa cell line. The reporter plasmid contains luciferase cDNA under the control of the AREs contained in the promoter sequences of the probasin gene (3xpbAREminicoll-luciferase/pGL3-puro). The expression of the reporter gene constitutes an indication of the transcriptional activity of hAR. It also encodes a protein allowing the cells expressing it to resist a treatment with puromycin. The plasmid encoding hAR contains the cDNA of hAR under the control of the Cytomegalovirus (CMV) promoter. It also encodes a protein allowing the cells expressing it to resist a treatment with neomycin. The treatment of cells with increasing amounts of potentially agonistic compounds will increase the expression of the reporter gene. To detect antagonists, on the other hand, increasing doses of test compounds are tested in the presence of […] of DHT. The expression of the reporter gene, which is constant for each dose of DHT, decreases when the concentration of the test compounds increases.
For this test, HeLa cells were obtained from the American Type Culture Collection (Rockville, Md.) and cultivated in DMEM medium containing 4.5 g/l of glucose, supplemented with Glutamax and with nonessential amino-acids and with 10% of foetal calf serum (SVF; Dominique Dutscher).
On the day before transfection, a million cells were seeded in DMEM medium without phenol red, supplemented with Glutamax and with desteroided SVF (5%) in Petri dishes. The cells were transfected with 4 μg of the puromycin resistance plasmids pcDNA3-hAR and 3xpbAREminicoll-luciferase/pGL3 using the reagent “Lipofectamine plus” (Invitrogen), following the supplier's recommendations. The day after transfection, the cells were seeded to different cell densities (10,000 to 100,000 cellules per Petri dish). Two days after transfection, the transfected cells were selected in DMEM medium without phenol red, supplemented with Glutamax and with desteroided SVF (5%) containing 400 μg/mL of G418 (Invitrogen) and 150 ng/mL of puromycin (Sigma). The culture medium was renewed weekly until resistant clones appeared. The resistant clones were removed and amplified before being tested for their functional response. […]
The functional response test was conducted on 96-well plates. The HALP2 cells were seeded (30,000 cells per well) 24 hours before the phase of stimulation in DMEM medium containing 4.5 g/L of glucose, supplemented with Glutamax and nonessential amino-acids, and with desteroided SVF (5%).
On the day of stimulation, the seeding medium was replaced by DMEM medium without phenol red, supplemented with Glutamax and with desteroided SVF (5%). […] The cells were placed in contact with the compounds for 20 hours at 37° C.

[1] = antagonism, concentration which increases the EC50 of the DHT by a factor of 2, Schild regression, HALP2 cells

| Compound | EC50 | KSchild (nM) potency [1] | KSchild (nM) potency |
| --- | --- | --- | --- |
| CC1(c2ccc(O)cc2)C(=O)N(c2ccc(C#N)c(C(F)(F)F)c2)C(=O)N1CO (stereo not drawn) [Example 228.1, 4-[2,5-dioxo-3-hydroxymethyl-4-(4-hydroxyphenyl)-4-methylimidazolidin-1-yl]-2-trifluoromethylbenzonitrile] | – | – | 150 nM |
| CN1C(=O)N(c2ccc(C#N)c(C(F)(F)F)c2)C(=O)[C@]1(CF)c1ccc(O)cc1 [Example 177.1, (S)-4-[4-fluoromethyl-4-(4-hydroxyphenyl)-3-methyl-2,5-dioxoimidazolidin-1-yl]-2-trifluoromethylbenzonitrile] | – | – | 310 nM |
| CC1(c2ccc(O)cc2)C(=O)N(c2ccc(C#N)c(C(F)(F)F)c2)C(=O)N1S(C)(=O)=O (stereo not drawn) [Example 243.1, 4-[2,5-dioxo-4-(4-hydroxyphenyl)-4-methyl-3-(methylsulphonyl)imidazolidin-1-yl]-2-trifluoromethylbenzonitrile] | – | – | 80 nM |
| O=C1C(c2ccc(O)cc2)N(Cc2ccc3c(c2)OCO3)C(=O)N1c1ccc([N+](=O)[O-])c(C(F)(F)F)c1 (stereo not drawn) [Example 98] | – | – | 94.87 nM |
| CN1C(=O)N(c2ccc(C#N)c(C(F)(F)F)c2)C(=O)[C@@]1(CF)c1ccc(O)cc1 [Example 177.2, (R)-4-[4-fluoromethyl-4-(4-hydroxyphenyl)-3-methyl-2,5-dioxoimidazolidin-1-yl]-2-trifluoromethylbenzonitrile] | – | – | 40.4 nM |
| N#CCN1C(=O)N(c2ccc(C#N)c(C(F)(F)F)c2)C(=O)C1c1ccc(O)cc1 (stereo not drawn) [Example 90] | – | – | 282.84 nM |
| O=C1C(c2ccc(O)cc2)N(Cc2ccsc2)C(=S)N1c1ccc(Cl)c(Cl)c1 (stereo not drawn) [Example 19, 1-(3,4-dichlorophenyl)-4-(4-hydroxyphenyl)-3-[(thiophen-3-yl)methyl]-2-thioxo-imidazolidin-5-one] | 195 nM | 154.92 nM | – |
| N#CCCN1C(=O)N(c2ccc(Cl)c(C(F)(F)F)c2)C(=O)C1c1ccc(O)cc1 (stereo not drawn) [Example 125] | – | – | 30 nM |
| CCC1(c2cc(F)c(O)c(F)c2)C(=O)N(c2ccc(C#N)c(C(F)(F)F)c2)C(=O)N1C (stereo not drawn) [Example 174, 4-[4-(3,5-difluoro-4-hydroxyphenyl)-2,5-dioxo-4-ethyl-3-methylimidazolidin-1-yl]-2-trifluoromethylbenzonitrile] | – | – | 6.93 nM |
| CCc1cc(C#N)ccc1N1C(=O)N(C)C(C)(c2ccc(O)cc2)C1=O (stereo not drawn) [Example 37, 4-[3,4-dimethyl-2,5-dioxo-4-(4-hydroxyphenyl)imidazolidin-1-yl]-3-ethylbenzonitrile] | – | – | 24.49 nM |
| CN1C(=O)N(c2ccc(F)c(F)c2)C(=O)C1c1ccc(O)cc1 (stereo not drawn) [Example 46] | 77.5 nM | 77.46 nM | – |
| O=C1C(c2ccc(O)cc2)N(CCCCO)C(=O)N1c1ccc([N+](=O)[O-])c(C(F)(F)F)c1 (stereo not drawn) [Example 131] | – | – | 600 nM |
| COc1ccc(C2(C)C(=O)N(c3ccc(C#N)c(C(F)(F)F)c3)C(=O)N2C)c(C)c1 (stereo not drawn) [Example 163, 4-[3,4-dimethyl-2,5-dioxo-4-(4-methoxy-2-methylphenyl)imidazolidin-1-yl]-2-trifluoromethylbenzonitrile] | – | – | 80 nM |
| O=C1C(c2ccc(O)cc2)N(Cc2ccsc2)C(=O)N1c1ccc(Cl)c(Cl)c1 (stereo not drawn) [Example 10, 1-(3,4-dichlorophenyl)-4-(4-hydroxyphenyl)-3-[(thiophen-3-yl)methyl]imidazolidine-2,5-dione] | 16.4 nM | 13.69 nM | – |
| C=CCN1C(=O)N(c2ccc(C#N)c(C(F)(F)F)c2)C(=O)C1c1ccc(O)cc1 (stereo not drawn) [Example 12, 4-[2,5-dioxo-4-(4-hydroxyphenyl)-3-(2-propenyl)imidazolidin-1-yl]-2-trifluoromethyl-benzonitrile] | – | – | 24.49 nM |
| CN1C(=O)N(c2ccc(Cl)c(Cl)c2Cl)C(=O)C1(C)c1ccc(O)cc1 (stereo not drawn) [Example 30, 3,4-dimethyl-4-(4-hydroxyphenyl)-1-(2,3,4-trichlorophenyl)imidazolidine-2,5-dione] | 15 nM | 15 nM | – |
| CC1(c2ccc(O)cc2)C(=O)N(c2ccc(C#N)c(C(F)(F)F)c2)C(=O)N1CCCO (stereo not drawn) [Example 150] | – | – | 60 nM |
| N#Cc1ccc(N2C(=O)C(c3ccc(O)cc3)N(CCO)C2=O)cc1C(F)(F)F (stereo not drawn) [Example 137] | – | – | 24.49 nM |
| CN1C(=O)N(c2ccc(C#N)c(C(F)(F)F)c2)C(=O)C1(c1ccc(O)cc1)C(F)(F)F (stereo not drawn) [Example 179, 4-[2,5-dioxo-4-(4-hydroxyphenyl)-3-methyl-4-trifluoromethylimidazolidin-1-yl]-2-trifluoromethylbenzonitrile] | – | – | 15 nM |

Now from value to molecule, other results behind:

| EC50 | KSchild (nM) potency [1] | Compound | KSchild (nM) potency |
| --- | --- | --- | --- |
| 49 nM | 48.99 nM | O=C1C(c2ccc(O)cc2)N(Cc2ccc3c(c2)OCO3)C(=O)N1c1ccc(F)c(Cl)c1 (stereo not drawn) [Example 103] | – |
| 200 nM | 200 nM | CCOCCCN1C(=O)N(c2cccc(C(F)(F)F)c2)C(=O)C1c1ccc(O)cc1 (stereo not drawn) [Example 89] | – |
| 245 nM | 244.95 nM | CN(C)CCN1C(=O)N(c2ccc(F)c(C(F)(F)F)c2)C(=O)C1c1ccc(O)cc1 (stereo not drawn) [Example 118] | – |
| 69.3 nM | 69.28 nM | C=CCN1C(=O)N(c2ccc(F)c(Cl)c2)C(=O)C1c1ccc(O)cc1 (stereo not drawn) [Example 63] | – |
| 26.2 nM | 26.21 nM | C=CCN1C(=O)N(c2cccc(C(F)(F)F)c2)C(=O)C1c1ccc(O)cc1 (stereo not drawn) [Example 64] | – |
| 49 nM | 48.99 nM | CCOCCCN1C(=O)N(c2ccc(Cl)c(C(F)(F)F)c2)C(=O)C1c1ccc(O)cc1 (stereo not drawn) [Example 86] | – |
| 24.5 nM | 21.21 nM | C#CCN1C(=O)N(c2ccc(Cl)c(Cl)c2)C(=O)C1c1ccc(O)cc1 (stereo not drawn) [Example 66] | – |
| 42.4 nM | 42.43 nM | C#CCN1C(=O)N(c2cccc(C(F)(F)F)c2)C(=O)C1c1ccc(O)cc1 (stereo not drawn) [Example 72] | – |
| 60 nM | 48.99 nM | CN1C(=O)N(c2ccc(F)c(C(F)(F)F)c2)C(=O)C1c1ccc(O)cc1 (stereo not drawn) [Example 48] | – |
| 44.7 nM | 28.28 nM | O=C1C(c2ccc(O)cc2)N(CCO)C(=O)N1c1ccc(Cl)c(Cl)c1 (stereo not drawn) [Example 139] | – |
| 600 nM | – | C=CCOCC1(c2ccc(OC)cc2)C(=O)N(c2ccc(Cl)c(Cl)c2)C(=O)N1C (stereo not drawn) [Example 171, 1-(3,4-dichlorophenyl)-4-(4-methoxyphenyl)-3-methyl-4-[(2-propenyloxy)methyl]-imidazolidine-2,5-dione] | – |
| 80 nM | 80 nM | CCOC(=O)CCN1C(=O)N(c2cccc(C(F)(F)F)c2)C(=O)C1c1ccc(O)cc1 (stereo not drawn) [Example 80] | – |
| 122 nM | 94.87 nM | CCOC(=O)CCN1C(=O)N(c2ccc(Cl)c(C(F)(F)F)c2)C(=O)C1c1ccc(O)cc1 (stereo not drawn) [Example 77] | – |
